Test results taken from patent US20150225762A1, “SAME-DAY BLOOD CULTURE WITH DIGITAL MICROSCOPY” (ACCELERATE DIAGNOSTICS, INC., priority 2012, published 2015).

Columns and labels:
[1] = test system: Ecol 35218; assay: Plate count of live bacteria after killing treatment; assay type: cell-based, E. coli
[2] = test system: Kpne 13882; assay: FISH detection of live and killed bacteria with or without protease digestion; assay type: cell-based, K. pneumoniae
[3] = test system: Saur 12600; assay: Plate count of live bacteria after killing treatment; assay type: cell-based, S. aureus
[4] = test system: Paer 27853; assay: FISH detection of live and killed bacteria with or without protease digestion; assay type: cell-based, P. aeruginosa
[5] = test system: Kpne 13882; assay: Plate count of live bacteria after killing treatment
[6] = test system: Paer 27853; assay: as above; assay type: cell-based, P. aeruginosa
[7] = test system: Saur 12600; assay: FISH detection of live and killed bacteria with or without protease digestion; assay type: cell-based, S. aureus
[8] = test system: Ecol 35218; assay: as above; assay type: cell-based, E. coli
[9] = 0 hr, after gentamycin 100 micrograms per mL 1 hour or 80% ethanol
[10] = gentamycin 1 hour or 80% ethanol
[11] = 1 hour, with protease (0.2 mg/mL Pronase)
[12] = 1 hour, with protease (0.2 mg/mL Pronase), cells live or pre-killed as labelled
[13] = 4 hour, with protease (0.2 mg/mL Pronase)
[14] = 4 hour, with protease (0.2 mg/mL Pronase), cells live or pre-killed as labelled

SMILES: CCO [Ethanol, ethanol]
- Conc of live bacteria by plating [1, 9]: <10 cfu/mL
- Killing by plating, in words [1, 10]: no viable cells
- FISH Conc ([2]; 1 hour, no protease): 4.9 × 10^5 cells/mL
- Positive Detection? ([2]; 1 hour, no protease): Yes (A detection threshold of 1×10^4 cells per mL was used as the threshold for a positive call in the FISH assay)
- Positive Detection? [2, 11]: Yes (A detection threshold of 1×10^4 cells per mL was used as the threshold for a positive call in the FISH assay)
- FISH Conc [2, 12]: 6.8 × 10^5 cells/mL
- FISH Conc ([2]; 4 hour, no protease): 4.1 × 10^5 cells/mL
- Positive Detection? ([2]; 4 hour, no protease): Yes (A detection threshold of 1×10^4 cells per mL was used as the threshold for a positive call in the FISH assay)
- Positive Detection? [2, 13]: Yes (A detection threshold of 1×10^4 cells per mL was used as the threshold for a positive call in the FISH assay)
- FISH Conc [2, 14]: 2.8 × 10^5 cells/mL
- Conc of live bacteria by plating [3, 9]: <10 cfu/mL
- Killing by plating, in words [3, 10]: no viable cells
- FISH Conc ([4]; 1 hour, no protease): 3.0 × 10^5 cells/mL
- Positive Detection? ([4]; 1 hour, no protease): Yes (A detection threshold of 1×10^4 cells per mL was used as the threshold for a positive call in the FISH assay)
- Positive Detection? [4, 11]: No (A detection threshold of 1×10^4 cells per mL was used as the threshold for a positive call in the FISH assay)
- FISH Conc [4, 12]: 6.7 × 10^3 cells/mL
- FISH Conc ([4]; 4 hour, no protease): 1.3 × 10^5 cells/mL
- Positive Detection? ([4]; 4 hour, no protease): Yes (A detection threshold of 1×10^4 cells per mL was used as the threshold for a positive call in the FISH assay)
- Positive Detection? [4, 13]: No (A detection threshold of 1×10^4 cells per mL was used as the threshold for a positive call in the FISH assay)
- FISH Conc [4, 14]: <1 × 10^3 cells/mL
- Conc of live bacteria by plating [5, 9]: <10 cfu/mL
- Killing by plating, in words [5, 10]: no viable cells
- Conc of live bacteria by plating [6, 9]: <10 cfu/mL
- Killing by plating, in words [6, 10]: no viable cells
- FISH Conc ([7]; 1 hour, no protease): 3.4 × 10^5 cells/mL
- Positive Detection? ([7]; 1 hour, no protease): Yes (A detection threshold of 1×10^4 cells per mL was used as the threshold for a positive call in the FISH assay)
- Positive Detection? [7, 11]: Yes (A detection threshold of 1×10^4 cells per mL was used as the threshold for a positive call in the FISH assay)
- FISH Conc [7, 12]: 2.5 × 10^5 cells/mL
- FISH Conc ([7]; 4 hour, no protease): 1.9 × 10^5 cells/mL
- Positive Detection? ([7]; 4 hour, no protease): Yes (A detection threshold of 1×10^4 cells per mL was used as the threshold for a positive call in the FISH assay)
- Positive Detection? [7, 13]: Yes (A detection threshold of 1×10^4 cells per mL was used as the threshold for a positive call in the FISH assay)
- FISH Conc [7, 14]: 1.2 × 10^5 cells/mL
- FISH Conc ([8]; 1 hour, no protease): 4.3 × 10^4 cells/mL
- Positive Detection? ([8]; 1 hour, no protease): Yes (A detection threshold of 1×10^4 cells per mL was used as the threshold for a positive call in the FISH assay)
- Positive Detection? [8, 11]: No (A detection threshold of 1×10^4 cells per mL was used as the threshold for a positive call in the FISH assay)
- FISH Conc [8, 12]: 3.3 × 10^3 cells/mL
- FISH Conc ([8]; 4 hour, no protease): 3.7 × 10^4 cells/mL
- Positive Detection? ([8]; 4 hour, no protease): Yes (A detection threshold of 1×10^4 cells per mL was used as the threshold for a positive call in the FISH assay)
- Positive Detection? [8, 13]: No (A detection threshold of 1×10^4 cells per mL was used as the threshold for a positive call in the FISH assay)
- FISH Conc [8, 14]: 6.7 × 10^3 cells/mL
